PubChem BioAssay (NCI)
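Step 1: Grow cells in 96-well plates. Step 2: Expose to compound for 48 hours at 5 concentrations. Step 3: Interpolate endpoints linearly; if unreached, use highest concentration. At the TGI there is no net growth.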

Legend:
Experiment in all cases: NCI-60 cell line screen, 48 h
[1] = tested on: DMS 114 small cell lung
[2] = tested on: SK-MEL-5 melanoma
[3] = tested on: HCC-2998 colon
[4] = tested on: NCI-H460 lung
[5] = tested on: SK-OV-3 ovarian
[6] = tested on: OVCAR-8 ovarian
[7] = tested on: CAKI-1 renal
[8] = tested on: HT29 colon
[9] = tested on: KM12 colon
[10] = tested on: SF-295 CNS
[11] = tested on: HCT-15 colon
[12] = tested on: XF 498 CNS
[13] = tested on: A498 renal
[14] = tested on: SK-MEL-28 melanoma
[15] = tested on: RXF 393 renal
[16] = tested on: KM20L2 colon
[17] = tested on: NCI-H23 lung
[18] = tested on: UACC-62 melanoma
[19] = tested on: SN12C renal
[20] = tested on: M19-MEL melanoma
[21] = tested on: UO-31 renal
[22] = tested on: HOP-18 NSCLC
[23] = tested on: MALME-3M melanoma
[24] = tested on: SK-MEL-2 melanoma
[25] = tested on: OVCAR-5 ovarian
[26] = tested on: 786-0 renal
[27] = tested on: M14 melanoma
[28] = tested on: RPMI-8226 leukemia
[29] = tested on: ACHN renal
[30] = tested on: HOP-92 NSCLC
[31] = tested on: CCRF-CEM leukemia
[32] = tested on: HCT-116 colon
[33] = tested on: SR leukemia
[34] = tested on: SW-620 colon
[35] = tested on: DMS 273 small cell lung
[36] = tested on: DLD-1 colon
[37] = tested on: HOP-62 NSCLC
[38] = tested on: SF-539 CNS
[39] = tested on: SNB-19 CNS
[40] = tested on: A549 NSCLC
[41] = tested on: SNB-75 CNS
[42] = tested on: UACC-257 melanoma
[43] = tested on: K-562 leukemia
[44] = tested on: OVCAR-3 ovarian
[45] = tested on: NCI-H522 lung
[46] = tested on: IGROV1 ovarian
[47] = tested on: SNB-78 CNS
[48] = tested on: TK-10 renal
[49] = tested on: LXFL 529 NSCLC
[50] = tested on: SF-268 CNS
[51] = tested on: EKVX NSCLC
[52] = tested on: COLO 205 colon
[53] = tested on: U251 CNS
[54] = tested on: MOLT-4 leukemia
[55] = tested on: NCI-H226 lung
[56] = tested on: OVCAR-4 ovarian
[57] = tested on: HL-60(TB) leukemia
[58] = tested on: LOX IMVI melanoma

Measured: TGI

Cc1cccc(C)c1NC(=O)C(=O)C(C#N)c1ccccc1Cl (centres undefined)
not listed: [58]
> 100 µM: all other assays above

Cc1cccc(C)c1NC(=O)CCC(=O)CC(=O)C(C)C
not listed: [58]
> 100 µM: all other assays above

CC1=CC2CCC1(C)C/C2=C(/C)OC=O (centres undefined)
not listed: [3] | [13] | [23]
> 100 µM: all other assays above
